From patent US9051325B2, “Bicyclic [5,6] imidazo pyrimodone compounds for use in the treatment of diseases or conditions mediated by Lp-PLA2” (GlaxoSmithKline Intellectual Property Development Limited, priority 2013, dated 2015)

Legend:
[1] = test system: rat EAE model; test: Rat experimental autoimmune encephalomyelitis (EAE) model, preventive treatment; type: in vivo
Description: A further study was carried out to study the impact of Lp-PLA2 inhibitors on modulating M1/M2 imbalance. In this study, rats were induced to develop experimental autoimmune encephalomyelitis (EAE) by immunization with myelin basic protein (MBP) antigen and treated with a known Lp-PLA2 inhibitor: 5-((9-Methoxy-4-oxo-6,7-dihydro-4H-pyrimido[6,1-a]isoquinolin-2-yl)oxy)-2-(3-(trifluoromethyl)phenoxy)benzonitrile (See PCT application no. PCT/CN2011/001597). In this preventive treatment model, the compound was administered at day 0 (day of immunization) and continued to administer until day 22. The study lasted for 25 days. Rats were subsequently monitored for symptoms of EAE. Rats were immunized with MBP to develop EAE and symptoms were monitored daily. Plasma Lp-PLA2 activity, OxLDL, and LysoPC concentration were determined at different time points through the course of EAE.

[2] = test system: proinflammatory (M1) and anti-inflammatory (M2) markers in macrophages; test: Ex vivo analysis of M1 and M2 markers in macrophages of EAE rats by realtime PCR; design: species or system rat; settings: splenic and CNS infiltrating macrophages of EAE rats
Description: Ex vivo analysis of proinflammatory (M1) and anti-inflammatory (M2) markers in control and compound treated EAE rats. Splenic macrophages were harvested at day 13 post MBP-immunization and assayed for expression of a variety of markers by realtime PCR. CNS infiltrating cells were harvested and macrophages were analyzed for expression of M1 and M2 markers by realtime PCR.

[3] = molecular target: T1, recombinant human Lp-PLA2 (Homo sapiens, UniProt Q13093); test: Recombinant human Lp-PLA2 assay (rhLp-PLA2, PED6 assay); type: biochemical; settings: lower bounds; read-out: pIC50 values in the PED6 assay (converted)
T1 sequence (Q13093 22-441): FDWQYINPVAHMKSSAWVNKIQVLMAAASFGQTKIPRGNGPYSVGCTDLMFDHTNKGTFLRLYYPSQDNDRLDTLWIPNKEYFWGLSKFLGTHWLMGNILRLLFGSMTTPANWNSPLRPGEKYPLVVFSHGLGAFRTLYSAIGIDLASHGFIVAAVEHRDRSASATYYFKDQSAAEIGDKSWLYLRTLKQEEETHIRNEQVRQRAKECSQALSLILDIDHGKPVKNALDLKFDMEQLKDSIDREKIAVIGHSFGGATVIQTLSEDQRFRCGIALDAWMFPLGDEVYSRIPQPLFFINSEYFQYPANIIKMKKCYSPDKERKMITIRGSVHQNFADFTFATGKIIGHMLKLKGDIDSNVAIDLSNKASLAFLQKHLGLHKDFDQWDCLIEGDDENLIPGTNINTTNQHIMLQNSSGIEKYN
Procedure, shortened: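 Compounds were preincubated 30 min with 4 nM […] rhLp-PLA2 in 50 mM HEPES pH 7.4, 150 mM NaCl, 1 mM CHAPS, then PED6 substrate […] was added for 20 min at room temperature in the dark. Fluorescence was read at ex 480/em 540, and pIC50 was fitted from 1:3 serial dilutions.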

[4] = molecular target: T2, Lp-PLA2 in human plasma (Homo sapiens, UniProt Q13093); test: Lp-PLA2 human plasma assay (Thio-PAF assay); type: biochemical; settings: pooled human plasma; lower bounds; read-out: pIC50 values in the thio-PAF assay (converted)
T2 construct: from tissue; host or cells: pooled human plasma
T2 sequence (Q13093 22-441): T1 sequence (Q13093 22-441)
Procedure, shortened: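 Pooled human plasma preincubated 30 min with compounds, then given 2-thio-PAF substrate with CPM and NEM in 50 mM HEPES pH 7.4, 150 mM NaCl, 1 mM CHAPS. Reaction quenched after 2 min with TFA and read by fluorescence (ex 380/em 485) after 40 min at room temperature; pIC50 from curve fit.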

IC50 [3] [µM] | IC50 [4] [µM] | SMILES | Lp-PLA2 activity in rat EAE plasma ([1]; rat EAE plasma) | LysoPC levels in rat EAE plasma ([1]; rat EAE plasma) | clinical disease ([1]; rat EAE, MBP immunization, administered day 0 to day 22) | M1 markers [2] | M2 markers [2]
– | – | COc1ccc2c(c1)CCn1c-2cc(Oc2ccc(Oc3cccc(C(F)(F)F)c3)c(C#N)c2)nc1=O [5-((9-Methoxy-4-oxo-6,7-dihydro-4H-pyrimido[6,1-a]isoquinolin-2-yl)oxy)-2-(3-(trifluoromethyl)phenoxy)benzonitrile] | decreased | decreased | reduction in clinical disease | decrease | increase
≤ 0.01 | ≤ 0.1 | [2H]C([2H])(Oc1cc2n(c(=O)n1)CC(C)(C)N2C)c1cccc(F)c1F [Example E67, 7-(dideutero(2,3-difluorobenzyl)oxy)-1,2,2-trimethyl-2,3-dihydroimidazo[1,2-c]pyrimidin-5(1H)-one] | – | – | – | – | –
≤ 0.01 | ≤ 0.1 | [2H]C([2H])(Oc1cc2n(c(=O)n1)CC(C)(C)N2C([2H])([2H])[2H])c1cccc(F)c1F [Example E15, 7-(dideutero(2,3-difluorobenzyl)oxy)-1-trideuteromethyl-2,2-dimethyl-2,3-dihydroimidazo[1,2-c]pyrimidin-5(1H)-one] | – | – | – | – | –
≤ 0.01 | ≤ 0.1 | C[C@@H]1Cn2c(cc(OCc3ccc(F)c(F)c3)nc2=O)N1C [Example E106, (R)-7-((3,4-difluorobenzyl)oxy)-1,2-dimethyl-2,3-dihydroimidazo[1,2-c]pyrimidin-5(1H)-one] | – | – | – | – | –
